The source of these data is US20230099367A1 (VERSITECH LIMITED, priority 2019, published 2023).

In one series the target is T1, human SCTR (Homo sapiens, UniProt P47872).
T1 construct: expressed in transfected cells; host or cells: CHO cells
The experiment in a line: In vitro Lance cAMP assay in CHO cells overexpressing human SCTR. The class given is cell-based. On the procedure: As SCTR is known to have cAMP as the secondary messenger, therefore to study receptor activation, the concentration of cAMP is measured by the help of Lance cAMP assay using the assay kit from PerkinElmer, as per the standardized protocol in our lab. […] Additionally, the cells upon transfection were used for the extraction of total RNA (TriPure reagent, Invitrogen) to confirm the receptor's expression.
The selected compounds were procured from TargetMol and chemicalbook.com. […] The five compounds were then used for analyzing their dose-dependent response on the SCTR to verify their effect on the receptor.
For orientation: cAMP levels reflect the balance of adenylyl cyclase and phosphodiesterase activity.

For a further series, the target named is T2, SCTR (Mus musculus, UniProt Q5FWI2).
T2 construct: low expression levels of the intrinsic receptor; from tissue; host or cells: duodenum, pancreas, cerebellum and kidney of C57 mice
Put plainly: Ex vivo cAMP assay on isolated mouse tissues. More on the design: species or system mice (C57). To be noted: isolated C57 mouse tissues; secretin 1 μM, KSD179019 100 μM. The source says:
Various tissues were collected from C57 mice and were washed three times with ice-cold HBSS (Invitrogen). Tissues were minced and weighed equally into four parts. […] After drug treatment, the tissues were homogenized for measuring the concentration of the cAMP by the Lance cAMP assay kit.

Another series concerns plasma vasopressin. The experiment in a line: Plasma vasopressin after intracerebroventricular injection. The class given is in vivo, C57 mice. To be noted: i.c.v.; secretin 500 ng/5 μl, KSD179019 260 ng/5 μl; 0-60 min; vs ACSF. On the procedure:
The complete protocol was performed as reported in our lab. Mice were implanted with the stainless-steel cannula with a projection to the lateral ventricular region (bregma: 0.5 mm, lateral: 1.0 mm and depth: 2.0 mm). The mice were allowed to recover for at least 5 days after the surgery. […] ACSF alone was used as a vehicle control. After drug treatment, blood was collected from the jugular vein at 0, 15, 30, 45 and 60 min. Plasma samples were collected from the whole blood by centrifugation at 4000×g for 10 min at 4° C. The samples were then used for the quantification of vasopressin by the help of ELISA using a commercial kit from (Phoenix Pharmaceuticals, Inc.) according to manufacturer instruction.

The test system of series [1] is blood pressure. Put plainly: Blood pressure in spontaneously hypertensive rats (DSI telemetry). The class given is in vivo, spontaneously hypertensive rat (SHR). The protocol:
Anti-hypertensive action of KSD179019 was analyzed by continues monitoring of the blood pressure and heart rate on spontaneously hypertensive rat (SHR) by using DSI telemetric implantation. DSI device was surgically implanted using the methodology described before. […] We used conventional combination therapy i.e. Azilsartan (Az; 0.3 μg/g BW) and Chlorthalidone (CLT; 1 μg/g BW) for the comparison with […]. Az is an angiotensin II receptor antagonist and CLT is a diuretic compound. Both these compounds are commonly used in the treatment of hypertension either individually and in combination. The dosing of the combination of Az+CLT on SHR rats is used as documented in previous publications. For blood pressure monitoring, telemetric device by DSI was used, using the implantation methodology mentioned earlier.

Series [2] has as its system salmonella strains (TA98, TA100, TA1535 and TA1537) and combination of two E.coli strains (uvrA and pKM101). The experiment in a line: Ames test for mutagenicity (OECD-471). On the procedure: In vitro and in vivo toxicity testing was performed. All these test were performed using the OECD guidelines. […] The MTT assay was performed on liver cells (HepG2 cell line) and kidney cells (HEK293 cell line) as they are the major organs effected by drug toxicity. […] Additionally, the potential carcinogenicity of this drug is tested according to OECD-471 (Ames test) using the commercially available kit from XENOMETRIX. The mutation effect of the drug was tested in salmonella strains (TA98, TA100, TA1535 and TA1537) and on the combination of two E.coli strains (uvrA and pKM101) (FIGS. 8a; 8b; 8c; 8d and 8e). […] Additionally, as the drug's secondary metabolite can also have carcinogenic effect, the Ames test was performed in presence of liver enzymes which can cause the formation of secondary metabolites (S9 liver extract) (FIGS. 9a; 9b; 9c; 9d and 9e). […] The animal testing was done under an animal license from the Laboratory Animal Unit (LAU) of the University of Hong Kong for testing at acute, sub-chronic and chronic levels of exposure. The study was done based on the OECD-423 guidelines. […] Major organs like brain, heart, liver, kidney, intestine, and colon were collected and analysed. […]
In vitro and in vivo toxicity testing was performed. […] Major organs like brain, heart, liver, kidney, intestine, and colon were collected and analysed. […]
On the technique in general: In the Ames test, an excess of revertant colonies over the control signals mutagenicity.

Series [3] can be described thus: Acute oral toxicity over 14 days (OECD-423), LD50 estimation. The class given is in vivo, C57BL/6J mice. The protocol: In vitro and in vivo toxicity testing was performed. All these test were performed using the OECD guidelines. […] The MTT assay was performed on liver cells (HepG2 cell line) and kidney cells (HEK293 cell line) as they are the major organs effected by drug toxicity. […] Additionally, the potential carcinogenicity of this drug is tested according to OECD-471 (Ames test) using the commercially available kit from XENOMETRIX. The mutation effect of the drug was tested in salmonella strains (TA98, TA100, TA1535 and TA1537) and on the combination of two E.coli strains (uvrA and pKM101) (FIGS. 8a; 8b; 8c; 8d and 8e). […] Additionally, as the drug's secondary metabolite can also have carcinogenic effect, the Ames test was performed in presence of liver enzymes which can cause the formation of secondary metabolites (S9 liver extract) (FIGS. 9a; 9b; 9c; 9d and 9e). […] The animal testing was done under an animal license from the Laboratory Animal Unit (LAU) of the University of Hong Kong for testing at acute, sub-chronic and chronic levels of exposure. The study was done based on the OECD-423 guidelines. […] The test was done on 6 animals in two batches in both males and females. The body weight change remained under 2 grams (FIG. 11) which is normal growth for 9 weeks old C57BL/6J (https://www.jax.org/jax-mice-and-services/strain-data-sheet-pages/body-weight-chart-000664#). […] The animals were subjected to histological analysis post sacrificing on day 14. Major organs like brain, heart, liver, kidney, intestine, and colon were collected and analysed. […] However, in order to determine a dose for sub-chronic and chronic studies, according to OECD recommendations, 3 animals were administered 5000 mg/kg BW of drug in a single administration. […] During the 14 day observation the animals remained healthy with no change in body weight and body temperature (FIG. 13).
In vitro and in vivo toxicity testing was performed. All tests were performed using the OECD guidelines. […] The MTT assay was performed on liver cells (HepG2 cell line) and kidney cells (HEK293 cell line) as they are the major organs effected by drug toxicity. […] Additionally, the potential carcinogenicity of this drug is tested according to OECD-471 (Ames test) using the commercially available kit from XENOMETRIX. The mutation effect of the drug was tested in salmonella strains (TA98, TA100, TA1535 and TA1537) and on the combination of two E.coli strains (uvrA and pKM101) (FIGS. 19a; 19b; 19c; 19d and 19e). […] Additionally, as the drug's secondary metabolite can also have carcinogenic effect, the Ames test was performed in presence of liver enzymes which can cause the formation of secondary metabolites (S9 liver extract) (FIGS. 20a; 20b; 20c; 20d and 20e). […] The animal testing was done under an animal license from the Laboratory Animal Unit (LAU) of the University of Hong Kong for testing at acute, sub-chronic and chronic levels of exposure. The study was done based on the OECD-423 guidelines. […] The test was done on 6 animals in two batches in both males and females. The body weight change remained under 2 grams (FIG. 21) which is normal growth for 9 weeks old C57BL/6J (https://www.jax.org/jax-mice-and-services/strain-data-sheet-pages/body-weight-chart-000664#). […] The animals were subjected to histological analysis post sacrificing on day 14. Major organs like brain, heart, liver, kidney, intestine, and colon were collected and analysed. […] However, in order to determine a dose for sub-chronic and chronic studies, according to OECD recommendations, 3 animals were administered 5000 mg/kg BW of drug in a single administration. […] During the 14 day observation the animals remained healthy with no change in body weight and body temperature (FIG. 23).

In series [4] the test system is blood pressure. The experiment in a line: Blood pressure after intraperitoneal secretin (DSI telemetry). To be noted: secretin 0.5 μg/g BW intraperitoneal; 5 min post administration. It is filed as in vivo, C57 mice. The protocol:
The DSI telemetric device was implanted using the standardized protocol from our lab. Post recovery, blood pressure measurements, and drug administration were initiated. […] The heart rate and blood pressure were measured continually up to 150 min post-injection time.

The conditions of series [5]: in vivo; cited from earlier work.
Where [6] appears, read: 14 days after 2000 mg/kg BW oral.

Ends that are not written are not given here.

T1 sequence (P47872 23-440): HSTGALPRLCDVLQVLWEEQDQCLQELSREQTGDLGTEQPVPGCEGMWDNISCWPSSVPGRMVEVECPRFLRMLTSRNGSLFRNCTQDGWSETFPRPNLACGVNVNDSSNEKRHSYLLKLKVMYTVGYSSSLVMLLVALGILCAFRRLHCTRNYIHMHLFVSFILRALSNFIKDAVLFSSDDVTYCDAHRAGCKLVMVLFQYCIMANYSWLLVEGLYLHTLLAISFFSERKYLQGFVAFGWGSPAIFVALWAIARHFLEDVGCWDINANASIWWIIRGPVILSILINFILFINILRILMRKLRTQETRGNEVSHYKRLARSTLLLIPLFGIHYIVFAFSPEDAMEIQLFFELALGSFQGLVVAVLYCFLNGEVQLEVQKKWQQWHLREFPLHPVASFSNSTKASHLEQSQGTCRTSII
T2 sequence (Q5FWI2 29-447): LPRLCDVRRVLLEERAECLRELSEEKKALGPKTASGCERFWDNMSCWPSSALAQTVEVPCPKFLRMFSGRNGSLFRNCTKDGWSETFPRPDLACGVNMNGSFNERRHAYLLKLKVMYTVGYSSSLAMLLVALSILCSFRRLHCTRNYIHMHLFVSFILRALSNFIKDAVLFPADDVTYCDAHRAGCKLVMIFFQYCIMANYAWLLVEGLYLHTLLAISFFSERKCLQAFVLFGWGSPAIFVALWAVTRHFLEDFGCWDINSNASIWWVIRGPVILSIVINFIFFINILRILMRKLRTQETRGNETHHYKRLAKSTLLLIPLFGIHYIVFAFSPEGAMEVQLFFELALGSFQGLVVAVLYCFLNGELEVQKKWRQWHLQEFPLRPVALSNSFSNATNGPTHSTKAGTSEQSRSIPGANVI

Regarding `c1ccc2c(Oc3nc(Nc4ccc(N5CCOCC5)cc4)c4ncn(C5CCCCC5)c4n3)cccc2c1` [KSD179019, puromorphamine], the “efficacy, % of maximal cAMP (of secretin)” value on human SCTR (SCT with KSD179019 (100 μM), maximal cAMP by SCT at 1 μM) is 131.9%. The “cAMP concentration compared to basal level (agonist screening)” value at human SCTR (compound 100 μM, CHO cells overexpressing human SCTR) is recorded as “low but statistically significant increase in cAMP concentration”. Further, the “cAMP response together with secretin (antagonist screening)” value on human SCTR (compound (10 μM in FIG. 6 legend, 100 μM elsewhere in the source) with 1 μM secretin) is on record as “potentiated the effect of secretin with significantly higher cAMP response”. Further, at human SCTR (different secretin concentrations plus KSD179019 100 μM), the “dose-dependent effect on secretin cAMP stimulation” value is reported as “dose-dependent potentiation of secretin on cAMP stimulation”. Moreover, at SCTR, the “cAMP production from duodenum, cerebellum and pancreas” value is on record as “able to stimulate cAMP production”. The “plasma Vp (vasopressin) concentration” value with plasma vasopressin is on record as “significant increase in plasma Vp”. Also, in the series on blood pressure [1] (SHR rats), the “hypotensive effect, times longer than combination therapy (Az and CLT)” value was 3 times; the “hypotensive effect, times longer than secretin peptide” value is on record as 360 times. Further, the “time that reduction in blood pressure lasted significantly” value in the series with blood pressure [1] (SHR, 0.26 μg/g BW tail vein (FIG. 12C)) is “up to 20 hours”. Moreover, the blood pressure reduction result with blood pressure [1] (SHR, 0.26 μg/g BW tail vein injection, vs saline) is listed as “consistent blood pressure reduction”. For the same compound, the “drop in blood pressure at peak” value with blood pressure [1] (SHR, KSD179019, peaked at 40 hours) is listed as 10%. In addition, the “reduction in mean arterial blood pressure” value in the series with blood pressure [1] (SHR, intravenous 0.26 μg/g BW, up to 60 hours post administration) is “approximately 10%”. For the same compound, the “reduction of MABP” value in the series with blood pressure [1] (SHR, intravenous, at 40 and 60 hours (FIG. 13B, N=2)) came out at 10%. Further, in the series on blood pressure [1] (SHR, oral 30, 50 and 80 mg/kg BW (FIG. 17)), the “time window of statistically significant drops in diastolic and systolic blood pressure” value fell in the range of 20 to 50 h. Further, the “time window of statistically significant drops in diastolic and systolic blood pressure” value with blood pressure [1] (SHR, tail-vein 0.26 μg/g body weight (FIG. 16)) lay within 20 to 50 h. For the same compound, the “duration of hypotensive effect post administration” value in the series with blood pressure [1] (SHR, until blood pressure recovered / effect still observed) is recorded as “up to 60 hours”. Also, the “carcinogenic potential of drug or metabolites, Ames test” value in series [2] (in presence of S9 liver extract) is reported as “no carcinogenic potential”. The “mutation effect, Ames test” value in series [2] (without S9 liver extract) is “No mutational effect”. The “fatal or toxic effects” value in series [3] (5000 mg/kg BW single administration, 14 day observation) is “no fatal or toxic effects were observed”. Besides, in series [3] (14 day after single oral dose of 2000 mg/kg BW), the “overall health of animals” value is recorded as “no effect on the overall health of animals”. Further, in series [3] (setting [6]), the body temperature result is recorded as “remained constant” and the body weight change result is “under 2 grams”. Further, the “histological analysis of major organs (necrosis)” value in series [3] (day 14, brain, heart, liver, kidney, intestine, colon, 2000 mg/kg BW) is “None of these organs were observed to have any signs of necrosis”. Also, the LD50 in series [3] (single oral administration, male and female mice, estimated, no fatality at 2000 mg/kg BW) is reported as 2000-5000 mg/kg BW.

Regarding `CC(C)C[C@H](NC(=O)CNC(=O)[C@H](CCC(N)=O)NC(=O)[C@H](CC(C)C)NC(=O)[C@H](CC(C)C)NC(=O)[C@H](CCCNC(=N)N)NC(=O)[C@H](CCC(N)=O)NC(=O)[C@H](CC(C)C)NC(=O)[C@H](CCCNC(=N)N)NC(=O)[C@H](C)NC(=O)CNC(=O)[C@H](CCC(=O)O)NC(=O)[C@H](CCCNC(=N)N)NC(=O)[C@H](CC(C)C)NC(=O)[C@H](CCCNC(=N)N)NC(=O)[C@H](CO)NC(=O)[C@H](CC(C)C)NC(=O)[C@H](CCC(=O)O)NC(=O)[C@H](CO)NC(=O)[C@@H](NC(=O)[C@H](Cc1ccccc1)NC(=O)[C@@H](NC(=O)CNC(=O)[C@H](CC(=O)O)NC(=O)[C@H](CO)NC(=O)[C@@H](N)Cc1c[nH]cn1)[C@@H](C)O)[C@@H](C)O)C(=O)N[C@H](C(N)=O)C(C)C` [secretin, reference compound], the “cAMP production from duodenum, cerebellum and pancreas” value at SCTR was “able to stimulate cAMP production”. Also, in the series with plasma vasopressin, the “plasma Vp (vasopressin) concentration” value is “significant increase in plasma Vp”. The “systolic and diastolic blood pressure drop” value in the series on blood pressure [4] is “blood pressure drop was significant”. Further, the “duration of blood pressure reduction” value in the series on blood pressure [1] (intravenous injection of secretin peptide) is reported as “approximately 10 min”. Moreover, the half-life in circulation result in series [5] is given as “approximately 2 min”.

For “ChiRhoStim: synthetic secretin peptide analog”, the half-life in circulation in series [5] is 45 min.

With “SecreFlo: synthetic secretin peptide analog (HSDGTFTSELSRLRDSARLQRLLQGLV; ends and bridges not checked; UniProt P63298 33-59, looked up)”, in series [5], the half-life in circulation was 20 min.
